Measured values: paper PMC5974779, “Prediction of Drug-Induced Hepatotoxicity Using Long-Term Stable Primary Hepatic 3D Spheroid Cultures in Chemically Defined Conditions” (Toxicological Sciences, 2018)
Read-outs that look alike come from different tables or passages of the source.

How the values were obtained:
[1] = test system: primary human hepatocytes (PHH) 3D spheroids
[2] = test system: clinical DILI in man; settings: cited from earlier work
[3] = therapeutic total cmax; ref PMID; cited from earlier work
[4] = ref DrugBank and Prescribers' Digital Reference database; cited from earlier work
[5] = test system: PHH 2D sandwich cultures; settings: cited from earlier work; for hepatotoxicity detection in 2D sandwich cultures of PHH: 100× cmax, 24 h, high content imaging
[6] = test system: PHH micropatterned cocultures with murine embryonic fibroblasts; settings: cited from earlier work
[7] = test system: PHH spheroids (hanging-drop); settings: cited from earlier work; for hepatotoxicity classification in hanging-drop PHH spheroids: 100× cmax, 2 weeks, ref Proctor et al., 2017
[8] = in vitro; settings: human
[9] = clinical DILI classification in man (POS/NEG)
[10] = clinical DILI classification used in this study, Supplementary Table 2, ref Chen et al., 2011, Guo et al., 2005, O'Brien et al., 2006, Sakatis et al., 2012, Suzuki et al., 2010, Xu et al., 2008
[11] = clinical DILI classification, Supplementary Table 1, ref Chen et al., 2011, Guo et al., 2005, O'Brien et al., 2006, Sakatis et al., 2012, Suzuki et al., 2010, Xu et al., 2008
[12] = PHH 2D sandwich cultures, 100x Cmax, ref Xu 2008
[13] = micropatterned cocultures, 100x Cmax, ref Khetani 2013
[14] = PHH hanging-drop spheroids, 100x Cmax, ref Proctor 2017
[15] = FDA drug labeling DILI score, ref Chen et al., 2011
[16] = clinical DILI classification, ref Xu et al. (2008)
[17] = clinical hepatotoxicity classification, ref O'Brien et al. (2003)
[18] = reported pattern of liver damage, Supplementary Table 2, ref literature
[19] = FDA drug labeling DILI concern, ref Chen et al., 2011

| Structure (SMILES) | Chemically defined spheroids (this study) 20x [1] | Cmax [3] | Extent of hepatic metabolism [4] | 2Dsw (Xu 2008) 100x [5, 12] | MPCC (Khetani 2013) 100x [6, 13] | Hanging-drop spheroids (Proctor 2017) 100x [7, 14] | Classified as ([2]; in vivo) | Clinical DILI class (panel heading of Figure 4) ([2]; in vivo) | DILI in vivo ([2]; in vivo) | FDA (0-8) ([2]; in vivo) | Sakatis et al. (2012) ([2]; in vivo) | Type of DILI ([2]; in vivo) | Xu et al. (2008) ([2]; in vivo) | further results |
| --- | --- | --- | --- | --- | --- | --- | --- | --- | --- | --- | --- | --- | --- | --- |
| CNCCc1ccccn1 [Betahistine] | Negative | 0.0037 µM | Moderate | Negative | Negative | – | – | – | – | – | – | – | – | DILI in vivo [2, 9]: POS; Classified as [2, 10]: POS; DILI in vivo [2, 11]: POS |
| O=C1CC2(CCCC2)CC(=O)N1CCCCN1CCN(c2ncccn2)CC1 [Buspirone] | Negative | – | – | Negative | Negative | Negative | – | – | – | – | – | – | – | hepatotoxicity evaluation in CD-spheroids [1]: not hepatotoxic |
| O=C1CN(/N=C/c2ccc(-c3ccc([N+](=O)[O-])cc3)o2)C(O)=N1 [Dantrolene] | Positive | 3.69 µM | Extensive | Positive | – | Negative | POS | Severe DILI | POS | 8 | Hepatotoxic | Hepatocellular injury or Mixed hepatitis | Positive | hepatotoxicity evaluation in CD-spheroids [1]: revealed the DILI liability; FDA (Severity) ([2]; in vivo): most DILI concern; Guo et al. (2005) ([2]; in vivo): 3; O'Brien et al. (2003) ([2]; in vivo): Severely; hepatotoxicity classification in hanging-drop PHH spheroids [7]: previously missed |
| O=C(O)Cc1ccccc1Nc1c(Cl)cccc1Cl [Diclofenac] | Positive | – | – | Positive | Positive | Positive | – | – | – | – | – | – | – | – |
| CCOC(=O)c1ncn2c1CN(C)C(=O)c1cc(F)ccc1-2 [Flumazenil] | Negative | 1.12 µM | Extensive | Negative | – | Negative | – | – | – | – | – | – | – | FDA (0-8) [2, 15]: 0; DILI in vivo [2, 9]: NEG; Classified as [2, 10]: NEG; DILI in vivo [2, 11]: NEG; Xu et al. (2008) [2, 16]: Negative; O'Brien et al. (2003) [2, 17]: Non-toxic; Type of DILI [2, 18]: Non-hepatotoxic |
| CNCCC(Oc1ccc(C(F)(F)F)cc1)c1ccccc1 (centres unmarked) [Fluoxetine] | Negative | – | – | – | – | – | NEG | DILI negative | NEG | 3 | non-hepatotixic | Non-hepatotoxic | Negative | Suzuki et al. (2010) ([2]; in vivo): 2; 2Dsw (Xu 2008) 100x [5]: Negative; MPCC (Khetani 2013) 100x [6]: Negative; hepatotoxicity classification in hanging-drop PHH spheroids [7]: flagged as hepatotoxic; Hanging-drop spheroids (Proctor 2017) 100x [7]: Positive |
| COC1=CC(=O)C[C@@H](C)[C@]12Oc1c(Cl)c(OC)cc(OC)c1C2=O [Griseofulvin] | Negative | 4.54 µM | Extensive | – | – | – | – | – | – | – | – | – | – | viability at 14 days, 20 × cmax [8]: > 100% |
| CN(C)CCCN1c2ccccc2CCc2ccccc21 [Imipramine] | – | – | Extensive | Negative | Positive | Positive | – | – | – | – | – | – | – | hepatotoxicity detection in 2D sandwich cultures of PHH ([5]; ref Xu et al., 2008): liver toxicity was not recognized |
| CCN(CC)CC(=O)Nc1c(C)cccc1C [Lidocaine] | – | – | – | Negative | Positive | – | – | – | – | – | – | – | – | – |
| Cc1cccc(Nc2ccccc2C(=O)O)c1C [Mefenamic Acid] | Positive | 26.9 µM | Extensive | Positive | Positive | – | POS | Severe DILI | POS | 8 | Hepatotoxic | Hepatocellular injury | Positive | – |
| CNCCC=C1c2ccccc2CCc2ccccc21 [Nortriptyline] | Positive | 1.5 µM | Extensive | Negative | Positive | – | – | – | – | – | – | – | – | FDA (Severity) [2, 19]: most DILI concern; FDA (0-8) [2, 15]: 8; DILI in vivo [2, 9]: POS; Classified as [2, 10]: POS; DILI in vivo [2, 11]: POS; Xu et al. (2008) [2, 16]: Positive; Type of DILI [2, 18]: Hepatocellular injury |
| CN1C(C(=O)Nc2ccccn2)=C(O)c2ccccc2S1(=O)=O [Piroxicam] | Negative | 5.13 µM | Extensive | Negative | Negative | – | POS | High DILI concern | POS | 3 | Hepatotoxic | Hepatocellular injury, Cholestatic injury or Mixed hepatitis | Positive | FDA (Severity) ([2]; in vivo): less DILI concern; Guo et al. (2005) ([2]; in vivo): 2; O'Brien et al. (2003) ([2]; in vivo): Severely; Suzuki et al. (2010) ([2]; in vivo): 1 |
| CC(=O)[C@H]1CC[C@H]2[C@@H]3CCC4=CC(=O)CC[C@]4(C)[C@H]3CC[C@]12C [Progesterone] | Negative | 0.193 µM | – | Negative | Negative | – | NEG | DILI negative | NEG | 2 | non-hepatotixic | Non-hepatotoxic | Positive | Suzuki et al. (2010) ([2]; in vivo): 1 |
| C=C[C@H]1C[N@@]2CC[C@H]1C[C@H]2[C@H](O)c1ccnc2ccc(OC)cc12 [Quinine] | Positive | 9.25 µM | – | – | – | – | – | – | – | – | – | – | – | 2Dsw (Xu 2008) 100x [5]: Positive; MPCC (Khetani 2013) 100x [6]: Positive |
| Cc1cn([C@H]2C=C[C@@H](CO)O2)c(=O)[nH]c1=O [Stavudine] | Negative | 3.46 µM | Minimal | Negative | – | Negative | – | – | – | – | – | – | – | Suzuki et al. (2010) ([2]; DILI classification score, ref Suzuki et al. (2010)): 2; FDA (Severity) [2, 19]: most DILI concern; FDA (0-8) [2, 15]: 8; DILI in vivo [2, 9]: POS; Classified as [2, 10]: POS; DILI in vivo [2, 11]: POS; Xu et al. (2008) [2, 16]: Positive; O'Brien et al. (2003) [2, 17]: Severely; Sakatis et al. (2012) ([2]; clinical hepatotoxicity classification, ref Sakatis et al. (2012)): Hepatotoxic; Type of DILI [2, 18]: Cholestatic injury or Mixed hepatitis |
| O=c1n(CCCN2CCN(c3cccc(Cl)c3)CC2)nc2ccccn12 [Trazodone] | Positive | 5.1 µM | Extensive | Positive | Positive | – | POS | High DILI concern | POS | 5 | – | Hepatocellular injury, Cholestatic injury or Mixed hepatitis | Positive | FDA (Severity) ([2]; in vivo): less DILI concern |
| CC(c1cc2ccccc2s1)N(O)C(N)=O (centres unmarked) [Zileuton] | Negative | 13.1 µM | Extensive | Positive | – | Negative | POS | High DILI concern | POS | 5 | Hepatotoxic | Hepatocellular injury | Positive | hepatotoxicity evaluation in CD-spheroids [1]: predicted to be DILI negative; FDA (Severity) ([2]; in vivo): most DILI concern; O'Brien et al. (2003) ([2]; in vivo): Severely; hepatotoxicity detection in 2D sandwich cultures of PHH ([5]; ref Xu et al., 2008): flagged as hepatotoxic; reactive oxygen species levels in 2D sandwich cultures of PHH ([5]; ref Xu et al., 2008): only slight increases in reactive oxygen species levels |
